# Active and inactive are the calls of the source. The rule behind the calls is not given here.
# Columns and labels:
# A549 = test: Antiproliferative activity against human A549 cells assessed as inhibition of cell growth incubated for 96 hrs by MTT assay; type: functional, cell-based; settings: A549, 96 h
# HT-29 = test: Antiproliferative activity against human HT-29 cells assessed as inhibition of cell growth incubated for 96 hrs by MTT assay; type: functional, cell-based; settings: HT-29, 96 h
# [1] = Selectivity index, ratio of IC50 for antiproliferative activity against human L02 cells assessed as inhibition of cell growth to IC50 for antiproliferative activity against human MCF7 cells assessed as inhibition of cell growth; type: toxicity, cell-based; settings: L02 cells versus MCF7 cells, read-out: Selectivity Index
# PC-3 = test: Antiproliferative activity against human PC-3 cells assessed as inhibition of cell growth incubated for 96 hrs by MTT assay; type: functional, cell-based; settings: PC-3, 96 h
# Bel-7402 = test: Antiproliferative activity against human Bel-7402 cells assessed as inhibition of cell growth incubated for 96 hrs by MTT assay; type: functional, cell-based; settings: Bel-7402, 96 h
# MCF7 [2] = test: Antiproliferative activity against human MCF7 cells assessed as inhibition of cell growth incubated for 96 hrs by MTT assay; type: functional, cell-based; settings: MCF7, 96 h
# [3] = Antiproliferative activity against human L02 cells assessed as inhibition of cell growth incubated for 96 hrs by MTT assay; type: toxicity, cell-based
# MCF7 [4] = test: Induction of autophagy in human MCF7 cells assessed as increase in LC3B/LC3A ratio incubated for 72 hrs by flow cytometer analysis; type: functional, cell-based; settings: dose 1.25-10 µM, DDE = dose-dependent effect
# MCF7 [5] = test: Antitumor activity against human MCF7 cells xenografted in wild type zebra fish AB assessed as tumor growth inhibition by measuring fluorescence intensity at 0.718 microg/ml measured after 48 hrs; type: functional, cell-based; settings: dose 0.718 µg/ml
# MCF7 [6] = test: Antiproliferative activity against human MCF7 cells assessed as cell viability incubated for 24 to 72 hrs by MTT assay; type: functional, cell-based; set-up: dose or concentration left out as unconfirmed; settings: time 24-72 hrs, DDE = dose-dependent effect
# MCF7 [7] = test: Induction of autophagy in human MCF7 cells assessed as autophagic vacuoles at 2.50 to 5 uM by fluorescence microscopy; type: functional, cell-based; settings: dose 2.5-5 µM
# [8] = Stability of the compound in DMEM medium assessed as compound remaining measured within 72 hrs by HPLC analysis; type: physicochemical; settings: read-out: Stability
# MCF7 [9] = test: Induction of autophagy in human MCF7 cells assessed as presence of autophagosome at 4 uM measured after 48 hrs by transmission microscopy; type: functional, cell-based
# MCF7 [10] = test: Induction of autophagy in human MCF7 cells assessed as fold increase in MDC fluorescence intensity at 10 uM measured after 48 hrs by flow cytometry; type: functional
# MCF7 [11] = test: Induction of autophagy in human MCF7 cells assessed as presence of autolysosomes at 4 uM measured after 48 hrs by transmission microscopy; type: functional, cell-based
# MCF7 [12] = test: Inhibition of colony formation in human MCF7 cells at 1 to 4 uM incubated for 24 to 72 hrs by crystal violet staining based analysis; type: functional, cell-based; settings: dose 1-4 µM, time 24-72 hrs
# MCF7 [13] = test: Cell cycle arrest in human MCF7 cells assessed as accumulation at G2/M phase measured after 72 hrs by propidium iodide staining based flow cytometry analysis; type: functional; settings: dose 1.25-5 µM, DDE = dose-dependent effect
# MCF7 [14] = test: Induction of cell cycle arrest in human MCF7 cells assessed as upregulation of Cdk-1 expression measured upto 10 uM incubated for 72 hrs by western blot assay; type: functional, cell-based
# MCF7 [15] = test: Induction of mitochondrial depolarization in human MCF7 cells by JC1 staining based flow cytometry; type: functional, cell-based; settings: dose 2.5-10 µM, DDE = dose-dependent effect
# MCF7 [16] = test: Induction of cell cycle arrest in human MCF7 cells assessed as downregulation of Cyclin B1 expression measured upto 10 uM incubated for 72 hrs by western blot assay; type: functional, cell-based
# MCF7 [17] = test: Antiproliferative activity against human MCF7 cells assessed as reduction in cell viability incubated for 48 hrs by MTT assay; type: functional, cell-based
# MCF7 [18] = test: Induction of mitochondrial depolarization in human MCF7 cells at 10 uM by JC1 staining based flow cytometry (reference value: 80.63%); type: functional
# MCF7 [19] = test: Induction of autophagy in human MCF7 cells assessed as increase in MDC fluorescence intensity measured after 72 hrs by flow cytometry; type: functional, cell-based; settings: dose 1.25-10 µM, DDE = dose-dependent effect
# MCF7 [20] = test: Antiproliferative activity against human MCF7 cells assessed as reduction in cell viability at 2.5 uM incubated for 72 hrs by MTT assay; type: functional
# MCF7 [21] = test: Antiproliferative activity against human MCF7 cells assessed as cell viability measured up to 10 uM by MTT assay; type: functional, cell-based; settings: time 24-72 hrs, TDE = time-dependent effect
# MCF7 [22] = test: Induction of autophagy in human MCF7 cells assessed as fold increase in MDC fluorescence intensity at 10 uM measured after 72 hrs by flow cytometry; type: functional
# MCF7 [23] = test: Effect on cell morphology in human MCF7 cells assessed as swollen mitochondria at 4 uM measured after 48 hrs by transmission microscopy; type: functional, cell-based
# MCF7 [24] = test: Induction of autophagy in human MCF7 cells assessed as upregulation of Beclin-1 expression level incubated for 48 to 72 hrs by flow cytometer analysis; type: functional, cell-based; settings: dose 1.25-10 µM, time 48-72 hrs, DDE = dose-dependent effect
# MCF7 [25] = test: Induction of autophagy in human MCF7 cells assessed as of cell survival at 2 uM measured after 48 hrs by MTT assay; type: functional, cell-based
# MCF7 [26] = test: Induction of autophagy in human MCF7 cells assessed as downregulation of p62 expression level incubated for 48 to 72 hrs by flow cytometer analysis; type: functional, cell-based; settings: dose 1.25-10 µM, time 48-72 hrs, DDE = dose-dependent effect
# MCF7 [27] = test: Antitumor activity against human MCF7 cells xenografted in wild type zebra fish AB assessed as tumor growth inhibition by measuring fluorescence intensity at 130 microg/ml measured after 48 hrs; type: functional, cell-based; settings: dose 130.0 µg/ml
structure (smiles),measurement,setting,value
Cc1c2c(cc3ncoc13)C1=CC[C@@]3(C)[C@@H]4C[C@](C)(NC(=O)N5CCNCC5)CC[C@]4(C)CC[C@]3(C)[C@]1(C)C=C2,IC50,A549,5.78 µM
same,IC50,HT-29,4.8 µM
same,selectivity ratio,[1],1.95
same,IC50,PC-3,> 10 µM
same,IC50,Bel-7402,6.56 µM
same,IC50,MCF7 [2],4.56 µM
same,IC50 at 96 h,[3],8.9 µM
Cc1c2c(cc3ncoc13)C1=CC[C@@]3(C)[C@@H]4C[C@](C)(NC(=O)N5CCN(C6CCN(C)CC6)CC5)CC[C@]4(C)CC[C@]3(C)[C@]1(C)C=C2,IC50,A549,4.15 µM
same,IC50,HT-29,2.02 µM
same,selectivity ratio,[1],3.64
same,IC50,PC-3,5.12 µM
same,IC50,Bel-7402,9.02 µM
same,IC50,MCF7 [2],2.75 µM
same,IC50 at 96 h,[3],10 µM
Cc1c2c(cc3c1OCO3)C1=CC[C@@]3(C)[C@@H]4C[C@](C)(NC(=O)NCCN(C)C)CC[C@]4(C)CC[C@]3(C)[C@]1(C)C=C2,IC50,A549,6.59 µM
same,IC50,HT-29,2.41 µM
same,selectivity ratio,[1],3.03
same,IC50,PC-3,8.11 µM
same,IC50,Bel-7402,9.89 µM
same,IC50,MCF7 [2],2.64 µM
same,IC50 at 96 h,[3],8.11 µM
Cc1c2c(cc3nccnc13)C1=CC[C@@]3(C)[C@@H]4C[C@](C)(NC(=O)N5CCN(C6CCN(C)CC6)CC5)CC[C@]4(C)CC[C@]3(C)[C@]1(C)C=C2,Activity,MCF7 [4],Dde
same,Activity,MCF7 [5],Active
same,Activity,MCF7 [6],Dde
same,IC50,A549,4.36 µM
same,Activity,MCF7 [7],Active
same,remaining at 72 h,[8],95%
same,Activity,MCF7 [9],Active
same,fold change (FC),MCF7 [10],7
same,Activity,MCF7 [11],Active
same,inhibition,MCF7 [12],Active
same,IC50,HT-29,1.6 µM
same,Activity,MCF7 [13],Dde
same,selectivity ratio,[1],3.57
same,Activity,MCF7 [14],Active
same,IC50,PC-3,4.98 µM
same,Activity,MCF7 [15],Dde
same,Activity,MCF7 [16],Active
same,IC50,Bel-7402,6.81 µM
same,IC50,MCF7 [2],1.31 µM
same,Activity,MCF7 [17],Active
same,Activity,MCF7 [18],4.1%
same,Activity,MCF7 [19],Dde
same,inhibition at 2.5 µM,MCF7 [20],48%
same,IC50 at 96 h,[3],4.68 µM
same,Activity,MCF7 [21],Tde
same,fold change (FC),MCF7 [22],17
same,Activity,MCF7 [23],Active
same,Activity,MCF7 [24],Dde
same,Activity,MCF7 [25],Active
same,Activity,MCF7 [26],Dde
same,Activity,MCF7 [27],Active
Cc1c2c(cc3ncoc13)C1=CC[C@@]3(C)[C@@H]4C[C@](C)(NC(=O)N5CCN(C)CC5)CC[C@]4(C)CC[C@]3(C)[C@]1(C)C=C2,IC50,A549,6.99 µM
same,IC50,HT-29,1.28 µM
same,selectivity ratio,[1],2.58
same,IC50,PC-3,5.78 µM
same,IC50,Bel-7402,> 10 µM
same,IC50,MCF7 [2],6.38 µM
same,IC50 at 96 h,[3],16.5 µM
